Assay results published in patent US20100119483A1, “PEPTIDE VIRAL ENTRY INHIBITORS” (Schering Corporation, priority 2004, published 2010).
Where “and” joins values, the source holds several entries; their conditions need not be identical. Equal entries are not always repeated.

Columns and labels:
HCV pseudoparticles = test: HCV pseudoparticle (HCVpp) entry assay in Huh7 hepatoma cells, luciferase readout; assay type: cell-based, hepatitis C virus; conditions: for luciferase units, HCV entry: duplicates; for % of control at ~30 uM: percentage of hepatitis C virus cellular entry at 30 μM peptide vs uninhibited control; for HCVpp % inh: peptide library screen, first screened at 100 ug/ml, cell entry inhibition vs uninhibited control
Outline: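 Pseudoparticles carrying HCV E1/E2 on an HIV luciferase backbone were produced in 293T cells; peptide was pre-incubated 1 h at 37 °C with Huh7 cells, then virus added and luciferase read after 72 h. Dose-response used 10-point 3-fold titration from 100 ug/ml; envelope-less particles controlled non-specific entry.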

[1] = system: amphotropic murine leukemia virus; test: AMLV pseudotyped virus entry counter-screen, same infection protocol; assay type: cell-based; conditions: for luciferase units, AMLV entry: duplicates; for AMLVpp % inh: peptide library screen, cell entry inhibition vs uninhibited control
Experimental: Infection of hepatoma cell lines with HCV pseudotype particles and screen for inhibitory peptides. The hepatoma cells, Huh7, was seeded at 8000 cells in 90 ul medium in 96-well plate. In the case of the inhibitor screen, the inhibitor was incubated with cells for one hour at 37° C. and then 50 ul viral supernatant was added to the cells 24 hours after seeding. The viral stock was pre-tittered and diluted to yield approximately 10,000 to 20,000 RLU. The cells were incubated at 37° C. with 5% CO2 for additional 72 hours and were harvested for luciferase assay. Peptide stocks were prepared in 100% DMSO at 10 mg/ml and were first screened at 100 ug/ml and then a dose responsive curve was generated with 10 points 3-fold titration starting from 100 ug/ml.
The specificity of the peptides were counter-screened with AMLV and HIV pseudotyped viruses using the same infection protocol.

[2] = 0.1 nM of peptide (printed for three rows), two values per peptide and row
[3] = 0.3 nM of peptide, two values per peptide
[4] = 1 nM of peptide, two values per peptide
[5] = 3 nM of peptide, two values per peptide
[6] = 10 nM of peptide, two values per peptide
[7] = 30 nM of peptide, two values per peptide
[8] = 100 nM of peptide, two values per peptide
[9] = 300 nM of peptide, two values per peptide
[10] = 10000 nM of peptide, two values per peptide
[11] = 30000 nM of peptide, two values per peptide
[12] = 0.01371742 uM of peptide (three lines)

Substance: A-I-K-W-E-Y-V-L-L-L-F-L-L [SEQ ID NO: 85]
- % control (HCVpp entry), alanine scanning (HCV pseudoparticles; [2]): 79 % control and 81 % control and 101 % control and 74 % control and 113 % control and 112 % control
- % control (HCVpp entry), alanine scanning (HCV pseudoparticles; [3]): 79 % control and 96 % control
- % control (HCVpp entry), alanine scanning (HCV pseudoparticles; [4]): 95 % control and 83 % control
- % control (HCVpp entry), alanine scanning (HCV pseudoparticles; [5]): 71 % control and 88 % control
- % control (HCVpp entry), alanine scanning (HCV pseudoparticles; [6]): 90 % control and 107 % control
- % control (HCVpp entry), alanine scanning (HCV pseudoparticles; [7]): 62 % control and 57 % control
- luciferase units, HCV entry (HCV pseudoparticles; 0.04115226 uM of peptide): 7203 luciferase units and 6444 luciferase units
- % control (HCVpp entry), alanine scanning (HCV pseudoparticles; [8]): 45 % control and 50 % control
- % control (HCVpp entry), alanine scanning (HCV pseudoparticles; [9]): 18 % control and 22 % control
- luciferase units, HCV entry (HCV pseudoparticles; 0.3703704 uM of peptide): 3658 luciferase units and 3430 luciferase units
- luciferase units, HCV entry (HCV pseudoparticles; 1.111111 uM of peptide): 4380 luciferase units and 2918 luciferase units
- luciferase units, HCV entry (HCV pseudoparticles; 3.333333 uM of peptide): 2239 luciferase units and 2490 luciferase units
- luciferase units, HCV entry (HCV pseudoparticles; 10 uM of peptide): 3393 luciferase units and 2865 luciferase units
- % control (HCVpp entry), alanine scanning (HCV pseudoparticles; [10]): 13 % control and 18 % control
- % control (HCVpp entry), alanine scanning (HCV pseudoparticles; [11]): 70 % control and 103 % control
- % of control at ~30 uM (HCV pseudoparticles): 20%
- luciferase units, AMLV entry [1, 12]: 55532 luciferase units and 43767 luciferase units and 32138 luciferase units and 44812 luciferase units and 41172 luciferase units and 40068 luciferase units
- luciferase units, AMLV entry ([1]; 0.04115226 uM of peptide): 32390 luciferase units and 42604 luciferase units
- luciferase units, AMLV entry ([1]; 0.1234568 uM of peptide): 41483 luciferase units and 44739 luciferase units
- luciferase units, AMLV entry ([1]; 0.3703704 uM of peptide): 44659 luciferase units and 43073 luciferase units
- luciferase units, AMLV entry ([1]; 1.111111 uM of peptide): 42996 luciferase units and 48628 luciferase units
- luciferase units, AMLV entry ([1]; 3.333333 uM of peptide): 92146 luciferase units and 118949 luciferase units
- luciferase units, AMLV entry ([1]; 10 uM of peptide): 129890 luciferase units and 172763 luciferase units
- luciferase units, AMLV entry ([1]; 30 uM of peptide): 72040 luciferase units and 83257 luciferase units

Substance: A-I-K-W-E-Y-V-L-L-L-F-L-L [SEQ ID NO: 86]
- % control (HCVpp entry), alanine scanning (HCV pseudoparticles; [2]): 86 % control and 90 % control and 87 % control and 103 % control and 108 % control
- % control (HCVpp entry), alanine scanning (HCV pseudoparticles; [3]): 96 % control and 133 % control
- % control (HCVpp entry), alanine scanning (HCV pseudoparticles; [4]): 80 % control and 102 % control
- % control (HCVpp entry), alanine scanning (HCV pseudoparticles; [5]): 90 % control and 118 % control
- % control (HCVpp entry), alanine scanning (HCV pseudoparticles; [6]): 69 % control and 67 % control
- luciferase units, HCV entry (HCV pseudoparticles; [12]): 10981 luciferase units and 12701 luciferase units and 17159 luciferase units and 18427 luciferase units and 19121 luciferase units and 16287 luciferase units
- % control (HCVpp entry), alanine scanning (HCV pseudoparticles; [7]): 59 % control and 60 % control
- luciferase units, HCV entry (HCV pseudoparticles; 0.04115226 uM of peptide): 8349 luciferase units and 8612 luciferase units
- % control (HCVpp entry), alanine scanning (HCV pseudoparticles; [8]): 48 % control and 33 % control
- luciferase units, HCV entry (HCV pseudoparticles; 0.1234568 uM of peptide): 6445 luciferase units and 3869 luciferase units
- % control (HCVpp entry), alanine scanning (HCV pseudoparticles; [9]): 25 % control and 30 % control
- luciferase units, HCV entry (HCV pseudoparticles; 0.3703704 uM of peptide): 5748 luciferase units and 3127 luciferase units
- luciferase units, HCV entry (HCV pseudoparticles; 1.111111 uM of peptide): 3652 luciferase units and 3574 luciferase units
- luciferase units, HCV entry (HCV pseudoparticles; 3.333333 uM of peptide): 2746 luciferase units and 2356 luciferase units
- % control (HCVpp entry), alanine scanning (HCV pseudoparticles; [10]): 27 % control and 25 % control
- luciferase units, HCV entry (HCV pseudoparticles; 30 uM of peptide): 1899 luciferase units and 1645 luciferase units
- % control (HCVpp entry), alanine scanning (HCV pseudoparticles; [11]): 15 % control and 27 % control
- % of control at ~30 uM (HCV pseudoparticles): 13%
- luciferase units, AMLV entry [1, 12]: 42295 luciferase units and 44556 luciferase units and 43059 luciferase units and 48854 luciferase units and 37783 luciferase units and 49462 luciferase units
- luciferase units, AMLV entry ([1]; 0.04115226 uM of peptide): 42084 luciferase units and 47952 luciferase units
- luciferase units, AMLV entry ([1]; 0.1234568 uM of peptide): 37163 luciferase units and 47412 luciferase units
- luciferase units, AMLV entry ([1]; 0.3703704 uM of peptide): 43543 luciferase units and 47987 luciferase units
- luciferase units, AMLV entry ([1]; 1.111111 uM of peptide): 40296 luciferase units and 43593 luciferase units
- luciferase units, AMLV entry ([1]; 3.333333 uM of peptide): 53350 luciferase units and 39047 luciferase units
- luciferase units, AMLV entry ([1]; 10 uM of peptide): 70573 luciferase units and 72462 luciferase units
- luciferase units, AMLV entry ([1]; 30 uM of peptide): 76174 luciferase units and 71333 luciferase units

Substance: A-I-K-W-E-Y-V-L-L-L-F-L-L [SEQ ID NO: 100]
- % control (HCVpp entry), lysine scanning (HCV pseudoparticles; [2]): 110 % control and 85 % control and 115 % control and 83 % control and 92 % control and 111 % control
- % control (HCVpp entry), lysine scanning (HCV pseudoparticles; [3]): 88 % control and 75 % control
- % control (HCVpp entry), lysine scanning (HCV pseudoparticles; [4]): 76 % control and 68 % control
- % control (HCVpp entry), lysine scanning (HCV pseudoparticles; [5]): 61 % control and 83 % control
- % control (HCVpp entry), lysine scanning (HCV pseudoparticles; [6]): 62 % control and 58 % control
- luciferase units, HCV entry (HCV pseudoparticles; [12]): 9526 luciferase units and 11368 luciferase units and 13637 luciferase units and 13231 luciferase units and 14358 luciferase units and 15831 luciferase units
- % control (HCVpp entry), lysine scanning (HCV pseudoparticles; [7]): 53 % control and 44 % control
- luciferase units, HCV entry (HCV pseudoparticles; 0.04115226 uM of peptide): 7066 luciferase units and 7585 luciferase units
- % control (HCVpp entry), lysine scanning (HCV pseudoparticles; [8]): 31 % control and 19 % control
- luciferase units, HCV entry (HCV pseudoparticles; 0.1234568 uM of peptide): 4241 luciferase units and 3590 luciferase units
- % control (HCVpp entry), lysine scanning (HCV pseudoparticles; [9]): 32 % control and 29 % control
- luciferase units, HCV entry (HCV pseudoparticles; 0.3703704 uM of peptide): 4161 luciferase units and 2767 luciferase units
- luciferase units, HCV entry (HCV pseudoparticles; 1.111111 uM of peptide): 3041 luciferase units and 2870 luciferase units
- luciferase units, HCV entry (HCV pseudoparticles; 3.333333 uM of peptide): 4131 luciferase units and 3158 luciferase units
- luciferase units, HCV entry (HCV pseudoparticles; 10 uM of peptide): 1538 luciferase units and 1360 luciferase units
- luciferase units, HCV entry (HCV pseudoparticles; 30 uM of peptide): 1262 luciferase units and 1073 luciferase units
- % of control at ~30 uM (HCV pseudoparticles): 6%
- luciferase units, AMLV entry ([1]; 0.04115226 uM of peptide): 39784 luciferase units and 45324 luciferase units
- luciferase units, AMLV entry ([1]; 0.1234568 uM of peptide): 46954 luciferase units and 44234 luciferase units
- luciferase units, AMLV entry ([1]; 0.3703704 uM of peptide): 42008 luciferase units and 39907 luciferase units
- luciferase units, AMLV entry ([1]; 1.111111 uM of peptide): 45723 luciferase units and 43633 luciferase units
- luciferase units, AMLV entry ([1]; 3.333333 uM of peptide): 70934 luciferase units and 59407 luciferase units
- luciferase units, AMLV entry ([1]; 10 uM of peptide): 135633 luciferase units and 74847 luciferase units
- luciferase units, AMLV entry ([1]; 30 uM of peptide): 76883 luciferase units and 56072 luciferase units

Substance: A-L-T-P-T-L-A-A-R-N-A-S-V-P-T-T [SEQ ID NO: 10]
- HCVpp % inh (HCV pseudoparticles): 53%
- AMLVpp % inh [1]: 1%

Substance: A-Q-V-C-G-P-V-Y-C-F-T-P-S-P-V-V [SEQ ID NO: 47]
- HCVpp % inh (HCV pseudoparticles): 40%
- AMLVpp % inh [1]: −8%

Substance: A-R-N-A-S-V-P-T-T-T-I-R-R-H-V-D [SEQ ID NO: 11]
- HCVpp % inh (HCV pseudoparticles): −26%
- AMLVpp % inh [1]: 24%

Substance: A-Y-Y-S-W-V-G-N-W-A-K-V-L-I-V-M [SEQ ID NO: 27]
- HCVpp % inh (HCV pseudoparticles): 39%
- AMLVpp % inh [1]: −2%

Substance: C-N-C-S-I-Y-P-G-H-V-T-G-H-R-M-A [SEQ ID NO: 19]
- HCVpp % inh (HCV pseudoparticles): 49%
- AMLVpp % inh [1]: 26%

Substance: C-W-H-Y-A-P-R-P-C-G-I-V-P-A-A-Q [SEQ ID NO: 45]
- HCVpp % inh (HCV pseudoparticles): 63%
- AMLVpp % inh [1]: −8%

Substance: D-C-F-R-K-H-P-E-A-T-Y-T-K-C-G-S [SEQ ID NO: 59]
- HCVpp % inh (HCV pseudoparticles): 26%
- AMLVpp % inh [1]: −14%

Substance: D-C-S-N-A-S-I-V-Y-E-A-A-D-M-I-M [SEQ ID NO: 5]
- HCVpp % inh (HCV pseudoparticles): −4%
- AMLVpp % inh [1]: −2%

Substance: D-M-V-A-G-A-H-W-G-V-L-A-G-L-A-Y [SEQ ID NO: 25]
- HCVpp % inh (HCV pseudoparticles): 27%
- AMLVpp % inh [1]: 14%
